One series in a line: Storage of aqueous solution or slurry for 60 days: HPLC analysis of components and appearance. The format is physicochemical. Particulars: keeping temperature 40° C.
Take `O=C([O-])CN(CC(=O)[O-])c1ccccc1C(=O)[O-].[Fe+3]` [compound 42, iron salt of anthranilic acid-N,N-diacetic acid, reference compound]: the “Appearance after kept for 60 days” value is given as “Blackish brown aqueous solution” and the “Content of the compound of the formula [I] in aqueous solution after kept for 60 days” value (from here on “Content of the compound of the formula”) amounted to 40.6 wt. %. The like results for `O=C([O-])CC(NCCNC(CC(=O)[O-])C(=O)[O-])C(=O)[O-].[Na+].[Na+].[Na+].[Na+]` (centres unmarked) [Example 122, tetrasodium ethylenediamine-N,N′-disuccinate] were, in that order, “White slurry” and 74.1 wt. %. The like results for `O=C([O-])CC(NCCCNC(CC(=O)[O-])C(=O)[O-])C(=O)[O-].[Na+].[Na+].[Na+].[Na+]` (centres unmarked) [Example 123, tetrasodium 1,3-propanediamine-N,N′-disuccinate] were, in that order, “White slurry” and 74.1 wt. %.

Consider `O=C([O-])CN(CC(=O)[O-])c1ccccc1C(=O)[O-].[Fe+3]` [Example 110, iron salt of anthranilic acid-N,N-diacetic acid], for which the “Appearance after kept for 60 days” value is on record as “Reddish brown aqueous solution” and the “Content of the compound of the formula” value turned out to be 49.3 wt. %.

Staying with this series, now noted: keeping temperature 60° C.
For `O=C([O-])C[C@@H](C(=O)[O-])N(CC(=O)[O-])CC(=O)[O-].[Na+].[Na+].[Na+].[Na+]` [compound 36, tetrasodium salt of (S)-aspartic acid-N,N-diacetic acid, reference compound], the “Appearance after kept for 60 days” value is recorded as “Brown slurry” and the “Content of the compound of the formula” value amounted to 48.3 wt. %.

The same series, now with this note: keeping temperature 65° C.
With `O=C([O-])CN[C@@H](CC(=O)[O-])C(=O)[O-].[Na+].[Na+].[Na+]` [Example 93, trisodium salt of (S)-aspartic acid-N-monoacetic acid], the “Appearance after kept for 60 days” value is listed as “Light yellow slurry” and the “Content of the compound of the formula” value came out at 63.7 wt. %. On to `C[C@@H](C(=O)[O-])N(CC(=O)[O-])CC(=O)[O-].[Na+].[Na+].[Na+]` [Example 96, trisodium salt of (S)-α-alanine-N,N-diacetic acid], for which the “Appearance after kept for 60 days” value is “Light yellow slurry” and the “Content of the compound of the formula” value was found to be 64.7 wt. %.

In the case of `O=C([O-])CCN[C@@H](CC(=O)[O-])C(=O)[O-].[Na+].[Na+].[Na+]` [Example 95, trisodium salt of (S)-aspartic acid-N-monopropionic acid], the “Appearance after kept for 60 days” value was “Light yellow slurry” and the “Content of the compound of the formula” value stood at 65.4 wt. %. With `O=C([O-])CC(NCCCNC(CC(=O)[O-])C(=O)[O-])C(=O)[O-].[Na+].[Na+].[Na+].[Na+]` (centres unmarked) [Example 119, tetrasodium 1,3-propanediamine-N,N′-disuccinate], the “Appearance after kept for 60 days” value is on record as “Light yellow slurry” and the “Content of the compound of the formula” value was 65.4 wt. %.

The series is the same for the next values; noted with them: keeping temperature 70° C.
Take `O=C([O-])C[C@@H](C(=O)[O-])N(CC(=O)[O-])CC(=O)[O-].[Na+].[Na+].[Na+].[Na+]` [Example 98, tetrasodium salt of (S)-aspartic acid-N,N-diacetic acid]: the “Appearance after kept for 60 days” value was “White slurry” and the “Content of the compound of the formula” value amounted to 78.5 wt. %.

Turning to `O=C([O-])C[C@H](NCCCN[C@@H](CC(=O)[O-])C(=O)[O-])C(=O)[O-].[Na+].[Na+].[Na+].[Na+]` [Example 120, tetrasodium (S,S)-1,3-propanediamine-N,N′-disuccinate], the “Appearance after kept for 60 days” value is “White slurry” and the “Content of the compound of the formula” value is recorded as 78.4 wt. %.

With `O=C([O-])CN[C@@H](CC(=O)[O-])C(=O)[O-].[Na+].[Na+].[Na+]` [Example 97, trisodium salt of (S)-aspartic acid-N-monoacetic acid], the “Appearance after kept for 60 days” value is “White slurry” and the “Content of the compound of the formula” value was determined as 76.8 wt. %.

The same series, now with this note: keeping temperature 75° C.
For `O=C([O-])CCN[C@@H](CC(=O)[O-])C(=O)[O-].[Na+].[Na+].[Na+]` [Example 91, trisodium salt of (S)-aspartic acid-N-monopropionic acid], the “Appearance after kept for 60 days” value is listed as “Colorless transparent aqueous solution” and the “Content of the compound of the formula” value came out at 49.8 wt. %. The like results for `CN(CC(=O)[O-])CC(=O)[O-].[Na+].[Na+]` [compound 41, disodium N-methyliminodiacetate, reference compound] were, in that order, “Light yellow transparent aqueous solution” and 29.6 wt. %. Take `O=C([O-])C[C@H](NCC(O)CN[C@@H](CC(=O)[O-])C(=O)[O-])C(=O)[O-].[Cu+2].[Na+].[Na+]` [compound 52, copper disodium (S,S)-2-hydroxy-1,3-propanediamine-N,N′-disuccinate, reference compound]: the “Appearance after kept for 60 days” value is reported as “Dark blue transparent aqueous solution” and the “Content of the compound of the formula” value is 38.7 wt. %. The like results for `O=C([O-])C[C@H](NCC(O)CN[C@@H](CC(=O)[O-])C(=O)[O-])C(=O)[O-].[Cu+2].[Na+].[Na+]` [Example 128, copper disodium (S,S)-2-hydroxy-1,3-propanediamine-N,N′-disuccinate] were, in that order, “Dark blue transparent aqueous solution” and 47.9 wt. %. As to `O=C([O-])C[C@H](NCCCN[C@@H](CC(=O)[O-])C(=O)[O-])C(=O)[O-].[Na+].[Na+].[Na+].[Na+]` [compound 46, tetrasodium (S,S)-1,3-propanediamine-N,N′-disuccinate, reference compound], the “Appearance after kept for 60 days” value was “Colorless transparent aqueous solution” and the “Content of the compound of the formula” value was 40.7 wt. %. The like results for `O=C([O-])CC(NCCNC(CC(=O)[O-])C(=O)[O-])C(=O)[O-].[Na+].[Na+].[Na+].[Na+]` (centres unmarked) [Example 117, tetrasodium ethylenediamine-N,N′-disuccinate] were, in that order, “Colorless transparent aqueous solution” and 49.8 wt. %.

On to `O=C([O-])CN(CCS(=O)(=O)[O-])CC(=O)[O-].[Na+].[Na+].[Na+]` [Example 103, trisodium salt of taurine-N,N-diacetic acid], for which the “Appearance after kept for 60 days” value was “Colorless transparent aqueous solution” and the “Content of the compound of the formula” value stood at 49.4 wt. %. Take `CN(CC(=O)[O-])CC(=O)[O-].[Na+].[Na+]` [Example 104, disodium N-methyliminodiacetate]: the “Appearance after kept for 60 days” value is reported as “Colorless transparent aqueous solution”. Turning to `O=C([O-])CC(NCCCNC(CC(=O)[O-])C(=O)[O-])C(=O)[O-].[Na+].[Na+].[Ni+2]` [Example 127, nickel disodium (S,S)-1,3-propanediamine-N,N′-disuccinate], the “Appearance after kept for 60 days” value is reported as “Blue transparent aqueous solution” and the “Content of the compound of the formula” value is 44.0 wt. %.

The values are drawn from patent US6426229B1, “Chelating agent and detergent comprising the same” (Mitsubishi Rayon Co., Ltd., priority 1995, dated 2002).
